Test results: patent US9221827B2, “Antimicrobial compounds and methods of making and using the same” (Melinta Therapeutics, Inc., priority 2011, dated 2015)

Tested on: Escherichia coli strain ATCC25922
Assay: standard microdilution assay to determine minimum inhibitory concentrations (MICs)
Type: cell-based
How it was run: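 Broth microdilution per CLSI (M7-A8/M100-S20), 100 μl final volume, with reference-strain quality control; MIC is the lowest inhibitory concentration. Scored "+"/"−" against a 16 micrograms/ml cutoff, "N/A" where unavailable.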

[1] = Escherichia coli strain ATCC25922, microdilution
[2] = Escherichia coli strain ATCC25922, standard microdilution assay

Row | SMILES | E. coli ATCC25922 MIC [1] | E. coli ATCC25922 MIC [2]
1 | N=C(N)NCCCNCc1ccc(-n2cc3cc(-c4cc(CCC5COCC5N)cc(OC(F)(F)F)c4)[nH]c3nc2=O)cc1 (stereo not shown) [Compound 476] | + (a “+” indicates that the compound has an MIC value of 16 micrograms/ml or less) | 
2 | C[C@H](NCCCNC(=N)N)c1ccc(-n2cc3cc(-c4cc(COCC(C)(C)N)cc(C(F)(F)F)c4)[nH]c3nc2=O)cc1 [Compound 455] |  | + (a “+” indicates that the compound has an MIC value of 16 micrograms/ml or less)
3 | C[C@H](N)CCCc1cc(-c2cc3cn(-c4ccc([C@H](C)NCCCNC(=N)N)cc4)c(=O)nc3[nH]2)cc(C(F)(F)F)c1 [Compound 236] | + (a “+” indicates that the compound has an MIC value of 16 micrograms/ml or less) | 
4 | N=C(N)NCCCNCc1ccc(-n2cc3cc(-c4cc(CCCN)cc(OC(F)(F)F)c4Cl)[nH]c3nc2=O)cc1 [Compound 225] | + (a “+” indicates that the compound has an MIC value of 16 micrograms/ml or less) | 
5 | N=C(N)NCCCNCc1ccc(-n2cc3cc(-c4cc(CCCCN)ccc4F)[nH]c3nc2=O)cc1F [Compound 54] | + (a “+” indicates that the compound has an MIC value of 16 micrograms/ml or less) | 
6 | N=C(N)NCCCNCc1ccc(-n2cc3cc(-c4cc(CSCCN)ccc4F)[nH]c3nc2=O)cc1 [Compound 7] | + (a “+” indicates that the compound has an MIC value of 16 micrograms/ml or less) | 
7 | N=C(N)NCCCNCc1ccc(-n2cc3cc(-c4cc(CCCCN)cc(OC(F)(F)F)c4)[nH]c3nc2=O)cc1F [Compound 39] | + (a “+” indicates that the compound has an MIC value of 16 micrograms/ml or less) | 
8 | COC(CCCN)c1cc(OC(F)(F)F)cc(-c2cc3cn(-c4ccc(CNCCCNC(=N)N)cc4)c(=O)nc3[nH]2)c1 (stereo not shown) [Compound 216] | + (a “+” indicates that the compound has an MIC value of 16 micrograms/ml or less) | 
9 | C[C@H](NCCCNC(=N)N)c1ccc(-n2cc3cc(-c4cc(CCCCN)cc(F)c4Cl)[nH]c3nc2=O)cc1 [Compound 67] | + (a “+” indicates that the compound has an MIC value of 16 micrograms/ml or less) | 
10 | C[C@H](N)c1ccc(-n2cc3cc(-c4cc(CCCC(C)(C)N)cc(Cl)c4F)[nH]c3nc2=O)cc1 [Compound 373] |  | − (a “−” indicates that the compound has an MIC value greater than 16 micrograms/ml)
11 | CC(NCCCNC(=N)N)c1ccc(-n2cc3cc(-c4cc(CC5CC(CN)C5)cc(SC(F)(F)F)c4)[nH]c3nc2=O)cc1 (mixture of isomers) [Compound 401] |  | + (a “+” indicates that the compound has an MIC value of 16 micrograms/ml or less)
12 | CSCCc1cc(CCCCN)cc(-c2cc3cn(-c4ccc(CNCCCNC(=N)N)cc4)c(=O)nc3[nH]2)c1 [Compound 11] | + (a “+” indicates that the compound has an MIC value of 16 micrograms/ml or less) | 
13 | Cc1cc(CCC[C@H](C)N)cc(-c2cc3cn(-c4ccc(CNCCCNC(=N)N)cc4)c(=O)nc3[nH]2)c1C [Compound 467] |  | + (a “+” indicates that the compound has an MIC value of 16 micrograms/ml or less)
14 | CC(C)(N)CCCc1ccc(F)c(-c2cc3cn(-c4ccc(CNCCCNC(=N)N)cc4)c(=O)nc3[nH]2)c1 [Compound 130] | + (a “+” indicates that the compound has an MIC value of 16 micrograms/ml or less) | 
15 | NCCCCc1cc(OC(F)(F)F)cc(-c2cc3cn(-c4ccc(CNCCCN=C(N)N)cc4F)c(=O)nc3[nH]2)c1 [Compound 90] | + (a “+” indicates that the compound has an MIC value of 16 micrograms/ml or less) | 
16 | CC(NCCCNC(=N)N)c1ccc(-n2cc3cc(-c4cc(CC5CCC(N)C5)cc(Cl)c4F)[nH]c3nc2=O)cc1 (mixture of isomers) [Compound 421] |  | + (a “+” indicates that the compound has an MIC value of 16 micrograms/ml or less)
17 | C[C@H](N)CCCc1cc(CC(F)(F)F)cc(-c2cc3cn(-c4ccc(CNCCCNC(=N)N)cc4)c(=O)nc3[nH]2)c1 [Compound 306] | + (a “+” indicates that the compound has an MIC value of 16 micrograms/ml or less) | 
18 | Cc1c(OC(F)F)cc(CCCCN)cc1-c1cc2cn(-c3ccc(CNCCCNC(=N)N)cc3)c(=O)nc2[nH]1 [Compound 237] | + (a “+” indicates that the compound has an MIC value of 16 micrograms/ml or less) | 
19 | N#Cc1cc(-c2cc3cn(-c4ccc(CNCCCNC(=N)N)cc4)c(=O)nc3[nH]2)cc(CCCCN)c1Cl [Compound 118] | + (a “+” indicates that the compound has an MIC value of 16 micrograms/ml or less) | 
20 | C[C@H](N)CCCc1cc(Cl)c(OC(F)(F)F)c(-c2cc3cn(-c4ccc(CNCCCNC(=N)N)cc4)c(=O)nc3[nH]2)c1 [Compound 321] | + (a “+” indicates that the compound has an MIC value of 16 micrograms/ml or less) | 
21 | C[C@H](NCCCNC(=N)N)c1ccc(-n2cc3cc(-c4cc(CO[C@@H](C)CN)cc(C(F)(F)F)c4)[nH]c3nc2=O)cc1 [Compound 315] | + (a “+” indicates that the compound has an MIC value of 16 micrograms/ml or less) | 
22 | Cc1cc(CCC[C@H](C)N)cc(-c2cc3cn(-c4ccc([C@H](C)NCCCNC(=N)N)cc4)c(=O)nc3[nH]2)c1C [Compound 468] |  | + (a “+” indicates that the compound has an MIC value of 16 micrograms/ml or less)

Row | SMILES | E. coli ATCC25922 MIC [1] | E. coli ATCC25922 MIC [2]
23 | Cc1c(-c2cc3cn(-c4ccc(CNCCCNC(=N)N)cc4)c(=O)nc3[nH]2)cc(CCCCN)cc1C(F)(F)F [Compound 212] | + (a “+” indicates that the compound has an MIC value of 16 micrograms/ml or less) | 
24 | C[C@H](NCCCNC(=N)N)c1ccc(-n2cc3cc(-c4cc(COC5COCC5N)cc(OC(F)(F)F)c4)[nH]c3nc2=O)cc1 (stereo partly shown) [Compound 460] |  | + (a “+” indicates that the compound has an MIC value of 16 micrograms/ml or less)
25 | N=C(N)NCCCNCc1ccc(-n2cc3cc(-c4cc(CCCCN)c(OC(F)F)cc4F)[nH]c3nc2=O)cc1 [Compound 139] | + (a “+” indicates that the compound has an MIC value of 16 micrograms/ml or less) | 
26 | N=C(N)NCCCNCc1ccc(-n2cc3cc(-c4cc(CCCCN)cc(C(F)(F)F)c4F)[nH]c3nc2=O)cc1 [Compound 111] | + (a “+” indicates that the compound has an MIC value of 16 micrograms/ml or less) | 
27 | CCC(N)CCCc1cc(Cl)c(F)c(-c2cc3cn(-c4ccc(C(C)NCCCNC(=N)N)cc4)c(=O)nc3[nH]2)c1 (stereo not shown) [Compound 374] |  | + (a “+” indicates that the compound has an MIC value of 16 micrograms/ml or less)
28 | C[C@@H](N)CCc1cc(SC(F)(F)F)cc(-c2cc3cn(-c4ccc(CNCCCNC(=N)N)cc4)c(=O)nc3[nH]2)c1 [Compound 397] |  | + (a “+” indicates that the compound has an MIC value of 16 micrograms/ml or less)
29 | COc1cc(CCCCN)cc(-c2cc3cn(-c4ccc(CNCCCNC(=N)N)cc4)c(=O)nc3[nH]2)c1C(F)(F)F [Compound 265] | + (a “+” indicates that the compound has an MIC value of 16 micrograms/ml or less) | 
30 | CC(C)(N)COCc1cc(-c2cc3cn(-c4ccc(CNCCCNC(=N)N)cc4)c(=O)nc3[nH]2)cc(C(F)(F)F)c1 [Compound 454] |  | + (a “+” indicates that the compound has an MIC value of 16 micrograms/ml or less)
31 | N#Cc1cc(CCCCN)cc(-c2cc3cn(-c4ccc(CNCCCNC(=N)N)cc4)c(=O)nc3[nH]2)c1Cl [Compound 114] | + (a “+” indicates that the compound has an MIC value of 16 micrograms/ml or less) | 
32 | Cc1cc(-c2cc3cn(-c4ccc(CNCCCN=C(N)N)cc4)c(=O)nc3[nH]2)cc(CCCCNC(=N)N)c1F [Compound 74] | + (a “+” indicates that the compound has an MIC value of 16 micrograms/ml or less) | 
33 | N=C(N)NCCCNCc1ccc(-n2cc3cc(-c4cc(CCCCN)cc(NC(N)=O)c4)[nH]c3nc2=O)cc1 [Compound 49] | + (a “+” indicates that the compound has an MIC value of 16 micrograms/ml or less) | 
34 | CC(N)CCCc1cc(-c2cc3cn(-c4ccc(CNCCCNC(=N)N)cc4)c(=O)nc3[nH]2)cc(C(F)(F)F)c1 (stereo not shown) [Compound 27] | + (a “+” indicates that the compound has an MIC value of 16 micrograms/ml or less) | 
35 | N=C(N)NCCCNCc1ccc(-n2cc3cc(-c4cc(Cl)c(F)c(CCCCN)c4)[nH]c3nc2=O)cc1 [Compound 267] | + (a “+” indicates that the compound has an MIC value of 16 micrograms/ml or less) | 
36 | CC(=O)Nc1cc(CCCCN)cc(-c2cc3cn(-c4ccc(CNCCCNC(=N)N)cc4)c(=O)nc3[nH]2)c1 [Compound 41] | + (a “+” indicates that the compound has an MIC value of 16 micrograms/ml or less) | 
37 | N=C(N)NCCCNCc1ccc(-n2cc3cc(-c4cc(CCCCN)cc(Cl)c4C(F)(F)F)[nH]c3nc2=O)cc1 [Compound 226] | + (a “+” indicates that the compound has an MIC value of 16 micrograms/ml or less) | 
38 | CC(N)CCCc1cc(Cl)c(F)c(-c2cc3cn(-c4ccc(C(CCO)NCCCNC(=N)N)cc4)c(=O)nc3[nH]2)c1 (stereo not shown) [Compound 506] | + (a “+” indicates that the compound has an MIC value of 16 micrograms/ml or less) | 
39 | C[C@H](N)c1ccc(-n2cc3cc(-c4cc(CCCC(C)(C)N)cc(SC(F)(F)F)c4)[nH]c3nc2=O)cc1 [Compound 371] |  | − (a “−” indicates that the compound has an MIC value greater than 16 micrograms/ml)
40 | C[C@H](N)CCCc1cc(OC(F)(F)F)cc(-c2cc3cn(-c4ccc([C@@H](C)N)cc4)c(=O)nc3[nH]2)c1 [Compound 405] |  | − (a “−” indicates that the compound has an MIC value greater than 16 micrograms/ml)
41 | CCOc1cc(CCCCN)cc(-c2cc3cn(-c4ccc(CNCCCNC(=N)N)cc4)c(=O)nc3[nH]2)c1F [Compound 245] | + (a “+” indicates that the compound has an MIC value of 16 micrograms/ml or less) | 
42 | CC(C)(CN)CCc1ccc(F)c(-c2cc3cn(-c4ccc(CNCCCNC(=N)N)cc4)c(=O)nc3[nH]2)c1 [Compound 117] | + (a “+” indicates that the compound has an MIC value of 16 micrograms/ml or less) | 
43 | CC(N)CCc1cc(OC(F)(F)F)cc(-c2cc3cn(-c4ccc(CNCCCNC(=N)N)cc4)c(=O)nc3[nH]2)c1 (stereo not shown) [Compound 260] | + (a “+” indicates that the compound has an MIC value of 16 micrograms/ml or less) | 
